SMILES strings stand for the structures.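 The compound was tested at five concentrations on cells cultured in 96-well plates, with a 48-hour exposure period. The concentration for 50% growth inhibition is given as GI50.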 The source made the active and inactive calls. Rule as the data show it: active = GI50 up to about 1.1 µM and inactive = higher.

We go through eleven compounds from ChEMBL document CHEMBL1201862, “PubChem BioAssay data set” (2004).

Among the test systems are A498; CCRF-CEM; DLD-1; DMS-273; HCC 2998; HCT-15; HOP-92; K562; MOLT-4; NCI-H23; OVCAR-5; OVCAR-8; RPMI-8226; SF-268; SNB-19; SNB-75; SW-620; UACC-62; SR; TK-10.
Experiment in all cases: NCI anticancer screen, dose series, 48 h

With `O=S(=O)(CCBr)CCBr`, the GI50 in the assay on A498 is 6.3 µM (inactive); in the assay with CCRF-CEM it was 2.96 µM (inactive); in the assay on DLD-1, 2.86 µM (inactive); in the assay on DMS-273, 4.59 µM (inactive); in the assay with HCC 2998, 6.95 µM (inactive); with HCT-15, 2.64 µM. In addition, the GI50 is 6.21 µM (inactive) in the assay with HOP-92; 3.98 µM (inactive) with K562; 2.58 µM (inactive) in the assay with MOLT-4; 6.52 µM (inactive) with NCI-H23; 13.7 µM (inactive) in the assay with OVCAR-5; 2.32 µM (inactive) in the assay on OVCAR-8. The GI50 with RPMI-8226 was 4.53 µM (inactive); with SF-268, 3.99 µM (inactive); with SNB-19, 17.6 µM (inactive); with SNB-75, 12.8 µM (inactive); with SW-620 it was 2.23 µM (inactive); with UACC-62, 2.96 µM (inactive).
On to `CCOC(=O)c1csc(NC(=O)C(C)N2CCOCC2)n1` (stereo unspecified), for which the GI50 in the assay on A498 is > 100 µM (inactive); in the assay on CCRF-CEM, > 100 µM (inactive); with HCC 2998 it was > 100 µM (inactive); in the assay on HCT-15, > 100 µM; in the assay on HOP-92, > 100 µM (inactive); with K562, > 100 µM (inactive). Also, the GI50 in the assay on MOLT-4, in the assay on NCI-H23, in the assay on OVCAR-5, with OVCAR-8, in the assay on RPMI-8226 and in the assay on SNB-19 was > 100 µM (inactive) each time. Also, the GI50 in the assay on SNB-75, in the assay with SR, in the assay on SW-620, with TK-10 and in the assay on UACC-62 was > 100 µM (inactive) each time.
On to `Cc1cc(C)c2c(c1)CC1(Cc3c(C)ccc(C)c3C1=O)C2=O` (stereo unspecified), for which the GI50 in the assay on A498 was > 100 µM (inactive); in the assay with CCRF-CEM it was > 100 µM (inactive); with HCC 2998, > 100 µM (inactive); with HCT-15 it was > 100 µM; with HOP-92, > 100 µM (inactive); in the assay with K562, > 100 µM (inactive). Besides, the GI50 with MOLT-4, with OVCAR-5, with OVCAR-8, with RPMI-8226, in the assay with SF-268 and in the assay on SNB-19 was > 100 µM (inactive) each time. Besides, the GI50 in the assay with SNB-75, in the assay with SR, with SW-620, with TK-10 and in the assay with UACC-62 was > 100 µM (inactive) each time.
`CC(=O)C(=O)NC1/C=C(C)\C=C/C(O)C/C=C(C)\C=C/C(O)CC2OC(=O)C1(C)C(=O)C2C` (stereo unspecified): the GI50 is > 100 µM (inactive) with A498; > 76.7 µM (inactive) with CCRF-CEM; > 100 µM (inactive) in the assay with DLD-1; > 100 µM (inactive) with DMS-273; > 100 µM (inactive) in the assay on HCC 2998; > 100 µM in the assay with HCT-15. Moreover, the GI50 with HOP-92 was > 100 µM (inactive); in the assay with K562 it was > 61.1 µM (inactive); in the assay with MOLT-4, > 31.2 µM (inactive); in the assay on NCI-H23, > 100 µM (inactive); in the assay on OVCAR-5, > 100 µM (inactive); with OVCAR-8, > 100 µM (inactive). For the same compound, the GI50 in the assay on RPMI-8226 was > 55.1 µM (inactive); in the assay with SF-268 it was > 100 µM (inactive); in the assay with SNB-19, > 100 µM (inactive); in the assay on SNB-75 it was > 100 µM (inactive); with SW-620, > 100 µM (inactive); with UACC-62, > 100 µM (inactive).
With `CCN(CC)CCCOC(=O)/C=C/c1c(C)[nH]c(=O)[nH]c1=O`, the GI50 was > 95.1 µM (inactive) in the assay on A498; > 625 µM (inactive) in the assay with CCRF-CEM; > 625 µM (inactive) with DLD-1; > 625 µM (inactive) in the assay on DMS-273; > 625 µM (inactive) in the assay with HCC 2998; > 625 µM in the assay with HCT-15. In addition, the GI50 with HOP-92 was 56.9 µM (inactive); in the assay on K562, > 625 µM (inactive); in the assay on MOLT-4, > 625 µM (inactive); with NCI-H23, > 625 µM (inactive); in the assay on OVCAR-5, > 625 µM (inactive); with OVCAR-8, 135 µM (inactive). Also, the GI50 in the assay with RPMI-8226, in the assay on SF-268, in the assay on SNB-19, in the assay with SNB-75, in the assay on SW-620 and in the assay on UACC-62 was > 625 µM (inactive) each time.
With `CSc1nc(NC2OC(CO)C(O)C(O)C2O)c(N)c(=O)n1C` (stereo unspecified), the GI50 in the assay with A498 was > 100 µM (inactive); in the assay on CCRF-CEM, > 100 µM (inactive); in the assay with DLD-1, > 100 µM (inactive); with DMS-273, > 100 µM (inactive); with HCC 2998 it was > 100 µM (inactive); in the assay on HCT-15, > 100 µM. For the same compound, the GI50 in the assay with HOP-92, in the assay with K562, in the assay with MOLT-4, in the assay with NCI-H23, with OVCAR-5 and with OVCAR-8 was > 100 µM (inactive) each time. For the same compound, the GI50 in the assay with RPMI-8226, with SF-268, in the assay on SNB-19, in the assay on SNB-75, with SW-620 and in the assay on UACC-62 was > 100 µM (inactive) each time.
As to `CO/N=C1/c2sccc2[C@H](NC(=O)C(Cc2ccccc2)NC(=O)OC(C)(C)C)[C@@H]1O` (stereo partly specified), the GI50 was > 100 µM (inactive) in the assay on A498; > 100 µM (inactive) with CCRF-CEM; > 100 µM (inactive) in the assay with HCC 2998; > 100 µM in the assay on HCT-15; > 100 µM (inactive) in the assay with HOP-92; > 100 µM (inactive) in the assay on K562. Further, the GI50 in the assay on MOLT-4 is 93.3 µM (inactive); in the assay with NCI-H23, > 100 µM (inactive); with OVCAR-5 it was > 100 µM (inactive); in the assay with OVCAR-8, > 100 µM (inactive); with SF-268 it was > 100 µM (inactive); with SNB-19, > 100 µM (inactive). Further, the GI50 with SNB-75 is > 100 µM (inactive); in the assay on SR, 49.5 µM (inactive); in the assay on SW-620, > 100 µM (inactive); in the assay with TK-10 it was > 100 µM (inactive); in the assay with UACC-62, > 100 µM (inactive).
In the case of `CNC(=S)N/N=C(/C)CCC/C(C)=N/NC(=S)NC`, the GI50 is > 75 µM (inactive) in the assay with A498; 0.145 µM (active) with CCRF-CEM; 11 µM with HCT-15; > 100 µM (inactive) in the assay on HOP-92; 0.408 µM (active) in the assay on K562; 0.0414 µM (active) with MOLT-4. Further, the GI50 in the assay on NCI-H23 is > 100 µM (inactive); with OVCAR-5, 1 µM (active); with OVCAR-8 it was 57.4 µM (inactive); in the assay on RPMI-8226, 5.61 µM (inactive); in the assay with SF-268, > 35.2 µM (inactive); in the assay with SNB-19 it was > 100 µM (inactive). Moreover, the GI50 is 29 µM (inactive) with SNB-75, 3.89 µM (inactive) in the assay with SR, > 100 µM (inactive) in the assay on TK-10 and > 58.2 µM (inactive) in the assay with UACC-62.
For the compound `C=C1CC(OC)(C(OC)C(=O)N(C)[C@H]2OCO[C@H]3C2O[C@H](C[C@@H](COC)OC)C(C)(C)C3OC)O[C@H](C)[C@@H]1C` (stereo partly specified), the GI50 is 12 µM (inactive) in the assay with A498; 7.71 µM (inactive) in the assay with CCRF-CEM; 18.3 µM (inactive) in the assay on DLD-1; 6.9 µM (inactive) with DMS-273; 10.8 µM (inactive) in the assay with HCC 2998; 18 µM with HCT-15. Moreover, the GI50 in the assay on K562 was 13.6 µM (inactive); in the assay with MOLT-4 it was 7.18 µM (inactive); in the assay on NCI-H23 it was 9.57 µM (inactive); with OVCAR-5, 26.7 µM (inactive); with OVCAR-8, 8.43 µM (inactive); with RPMI-8226, 17.2 µM (inactive). For the same compound, the GI50 was 4.6 µM (inactive) in the assay on SF-268; 8.97 µM (inactive) with SNB-19; 4.4 µM (inactive) with SNB-75; 14 µM (inactive) in the assay with SW-620; 14.5 µM (inactive) in the assay with UACC-62.
With `C[n+]1ccc(Nc2ccc(NC(=O)c3ccc(Nc4cc[n+](C)c5ccc([N+](=O)[O-])cc45)cc3[N+](=O)[O-])cc2)cc1`, the GI50 was 36.7 µM (inactive) in the assay on A498; 24.4 µM (inactive) in the assay with CCRF-CEM; > 92 µM (inactive) in the assay with DLD-1; 34.9 µM (inactive) with DMS-273; > 100 µM (inactive) with HCC 2998; 44.8 µM in the assay on HCT-15. Also, the GI50 was 22.8 µM (inactive) in the assay with HOP-92; 14.3 µM (inactive) with K562; 32.3 µM (inactive) with MOLT-4; > 55.6 µM (inactive) in the assay with NCI-H23; 31.7 µM (inactive) in the assay on OVCAR-8; 24 µM (inactive) in the assay on RPMI-8226. Also, the GI50 in the assay on SF-268 is 40.6 µM (inactive); with SNB-19, > 73.3 µM (inactive); with SNB-75, > 57.4 µM (inactive); in the assay on SW-620, > 100 µM (inactive); with UACC-62 it was 26.1 µM (inactive).
As to `COc1cc(O)c(Cc2ccccc2O)c(O)c1C(=O)CCc1ccccc1` [UVARETIN], the GI50 in the assay on A498 is 1.48 µM (inactive); in the assay with CCRF-CEM, 6.21 µM (inactive); with DLD-1 it was 7.33 µM (inactive); in the assay on DMS-273, 4.39 µM (inactive); in the assay on HCC 2998, 6.1 µM (inactive); with HCT-15 it was 5.71 µM. Besides, the GI50 in the assay with HOP-92 was 3.99 µM (inactive); in the assay with K562, 5.26 µM (inactive); in the assay with MOLT-4 it was 3.85 µM (inactive); in the assay with NCI-H23 it was 4.17 µM (inactive); in the assay with OVCAR-5 it was 4.6 µM (inactive); in the assay on OVCAR-8, 6.41 µM (inactive). Moreover, the GI50 was 2.44 µM (inactive) with RPMI-8226; 7.01 µM (inactive) in the assay on SF-268; 6.55 µM (inactive) with SNB-19; 6.92 µM (inactive) in the assay with SNB-75; 7.23 µM (inactive) with SW-620; 4.4 µM (inactive) with UACC-62.
